This passage reports IC50 results from patent US8163777B2, “Benzimidazolyl-pyridine compounds for inflammation and immune-related uses” (Synta Pharmaceuticals Corp., priority 2006, dated 2012).

The assay relates to IL-2 production. The assay is described as follows: Inhibition of IL-2 production in PHA-activated Jurkat cells (ELISA). Type of assay: cell-based. To be noted: Homo sapiens, PHA 2.5 μg/mL, 20 hours. On the procedure: Jurkat cells were placed in a 96 well plate (0.5 million cells per well in 1% FBS medium) then test compounds of this invention were added at different concentrations. After 10 minutes, the cells were activated with PHA (final concentration 2.5 μg/mL) and incubated for 20 hours at 37° C. under CO2. The final volume was 200 μL. Following incubation, the cells were centrifuged and the supernatants collected and stored at −70° C. prior to assaying for IL-2 production. A commercial ELISA kit (IL-2 Eli-pair, Diaclone Research, Besancon, France) was used to detect production of IL-2, from which dose response curves were obtained. The IC50 value was calculated as the concentration at which 50% of maximum IL-2 production after stimulation was inhibited versus a non-stimulation control.
A general note: An ELISA detects its analyte on a solid surface through an enzyme-linked reagent.

Setting [1] is: bin given with mixed units 500 nM-1 μM.

Consider `COc1ccc2c(c1)nc(C(F)(F)F)n2-c1ccc(NC(=O)c2cccc(I)c2)nc1` [Compound 181, 3-Iodo-N-[5-(5-methoxy-2-trifluoromethyl-benzoimidazol-1-yl)-pyridin-2-yl]-benzamide], for which the IC50 (in general, the concentration needed to halve the response being measured) (binned values) is greater than 1 µM.
As for `COc1ccc2c(c1)nc(C(F)(F)F)n2-c1ccc(NC(=O)c2ccc(I)cc2)nc1` [Compound 182, 4-Iodo-N-[5-(5-methoxy-2-trifluoromethyl-benzoimidazol-1-yl)-pyridin-2-yl]-benzamide], the 50% inhibitory concentration (IC50) under setting [1] lay in the range of 0.5 to 1 µM.
On to `COc1ccc2c(c1)nc(C(F)(F)F)n2-c1ccc(NC(=O)c2cccc(C#N)c2)nc1` [Compound 183, 3-Cyano-N-[5-(5-methoxy-2-trifluoromethyl-benzoimidazol-1-yl)-pyridin-2-yl]-benzamide], for which, under “binned values”, the 50% inhibitory concentration (IC50) is 0.1 to 0.5 µM.
Still for that read-out and setting: with `COc1ccc2c(c1)nc(C(F)(F)F)n2-c1ccc(NC(=O)c2cccc([N+](=O)[O-])c2)nc1` [Compound 184, N-[5-(5-Methoxy-2-trifluoromethyl-benzoimidazol-1-yl)-pyridin-2-yl]-3-nitro-benzamide] the figure was 0.1 to 0.5 µM.
In turn, `COc1ccc2c(c1)nc(C(F)(F)F)n2-c1ccc(NC(=O)c2ccccc2F)nc1` [Compound 185, 2-Fluoro-N-[5-(5-methoxy-2-trifluoromethyl-benzoimidazol-1-yl)-pyridin-2-yl]-benzamide] showed an IC50 (binned values) of less than 0.1 µM.
`COc1ccc2c(c1)nc(C(F)(F)F)n2-c1ccc(NC(=O)c2cccc(F)c2)nc1` [Compound 186, 3-Fluoro-N-[5-(5-methoxy-2-trifluoromethyl-benzoimidazol-1-yl)-pyridin-2-yl]-benzamide] showed an IC50 under setting [1] of 0.5 to 1 µM.
`COc1ccc2c(c1)nc(C(F)(F)F)n2-c1ccc(NC(=O)c2ccccc2I)nc1` [Compound 187, 2-Iodo-N-[5-(5-methoxy-2-trifluoromethyl-benzoimidazol-1-yl)-pyridin-2-yl]-benzamide] had an IC50 (binned values) of less than 0.1 µM.
Same read-out and setting: with `COc1ccc2c(c1)nc(C(F)(F)F)n2-c1ccc(NC(=O)CC(C)C)nc1` [Compound 189, N-[5-(5-Methoxy-2-trifluoromethyl-benzoimidazol-1-yl)-pyridin-2-yl]-3-methyl-butyramide] the figure was less than 0.1 µM; with `COc1ccc2c(c1)nc(C(F)(F)F)n2-c1ccc(NC(=O)c2ccc([N+](=O)[O-])cc2)nc1` [Compound 190, N-[5-(5-Methoxy-2-trifluoromethyl-benzoimidazol-1-yl)-pyridin-2-yl]-4-nitro-benzamide], 0.1 to 0.5 µM.
On the same count and under the same terms, with `COc1ccc2c(c1)nc(C(F)(F)F)n2-c1ccc(NC(=O)c2cccc(Br)c2)nc1` [Compound 191, 3-Bromo-N-[5-(5-methoxy-2-trifluoromethyl-benzoimidazol-1-yl)-pyridin-2-yl]-benzamide] the figure was 0.1 to 0.5 µM; with `COC(=O)c1cccc(C(=O)Nc2ccc(-n3c(C(F)(F)F)nc4cc(OC)ccc43)cn2)c1` [Compound 192, N-[5-(5-Methoxy-2-trifluoromethyl-benzoimidazol-1-yl)-pyridin-2-yl]-isophthalamic acid methyl ester], 0.1 to 0.5 µM.
Still for that read-out and setting: with `COc1ccc2c(c1)nc(C(F)(F)F)n2-c1ccc(NC(=O)C2CCCC2)nc1` [Compound 193, Cyclopentanecarboxylic acid [5-(5-methoxy-2-trifluoromethyl-benzoimidazol-1-yl)-pyridin-2-yl]-amide] the figure was less than 0.1 µM.
Turning to `COc1ccc2c(c1)nc(C(F)(F)F)n2-c1ccc(NC(=O)c2csnc2C)nc1` [Compound 194, 3-Methyl-isothiazole-4-carboxylic acid [5-(5-methoxy-2-trifluoromethyl-benzoimidazol-1-yl)-pyridin-2-yl]-amide], the IC50 under setting [1] is 0.5 to 1 µM.
Take `COc1ccc2c(c1)nc(C(F)(F)F)n2-c1ccc(NC(=O)c2scnc2Br)nc1` [Compound 195, 4-Bromo-thiazole-5-carboxylic acid [5-(5-methoxy-2-trifluoromethyl-benzoimidazol-1-yl)-pyridin-2-yl]-amide]: the half-maximal inhibitory concentration (IC50) (binned values) was in the range of 0.1 to 0.5 µM.
Where the note is “binned values”, `COc1ccc2c(c1)nc(C(F)(F)F)n2-c1ccc(NC(=O)c2ccc(Br)cc2)nc1` [Compound 196, 4-Bromo-N-[5-(5-methoxy-2-trifluoromethyl-benzoimidazol-1-yl)-pyridin-2-yl]-benzamide] registered an IC50 of 0.1 to 0.5 µM.
Same read-out and setting: with `COc1ccc2c(c1)nc(C(F)(F)F)n2-c1ccc(NC(=O)c2ccccc2[N+](=O)[O-])nc1` [Compound 197, 2-Nitro-N-[5-(5-methoxy-2-trifluoromethyl-benzoimidazol-1-yl)-pyridin-2-yl]-benzamide] the figure was less than 0.1 µM.
For the molecule `COc1ccc2c(c1)nc(C(F)(F)F)n2-c1ccc(NC(=O)c2cccc(C)c2)nc1` [Compound 198, N-[5-(5-Methoxy-2-trifluoromethyl-benzoimidazol-1-yl)-pyridin-2-yl]-3-methyl-benzamide], the IC50 under setting [1] is 0.5 to 1 µM.
As to `COc1ccc2c(c1)nc(C(F)(F)F)n2-c1ccc(NC(=O)c2ccc(C)cc2C)nc1` [Compound 200, N-[5-(5-Methoxy-2-trifluoromethyl-benzoimidazol-1-yl)-pyridin-2-yl]-2,4-dimethyl-benzamide], the IC50 under setting [1] was in the range of 0.5 to 1 µM.
Molecule `COc1ccc2c(c1)nc(C(F)(F)F)n2-c1ccc(NC(=O)c2ccncc2F)nc1` [Compound 201, 3-Fluoro-N-[5-(5-methoxy-2-trifluoromethyl-benzoimidazol-1-yl)-pyridin-2-yl]-isonicotinamide] had an IC50 (binned values) of 0.1 to 0.5 µM.
On the same count and under the same terms, with `COc1ccc2c(c1)nc(C(F)(F)F)n2-c1ccc(NC(=O)c2cccc(C)c2C)nc1` [Compound 202, N-[5-(5-Methoxy-2-trifluoromethyl-benzoimidazol-1-yl)-pyridin-2-yl]-2,3-dimethyl-benzamide] the figure was less than 0.1 µM; with `COc1ccc2c(c1)nc(C(F)(F)F)n2-c1ccc(NC(=O)c2ccc(N(C)C)cc2)nc1` [Compound 203, 4-Dimethylamino-N-[5-(5-methoxy-2-trifluoromethyl-benzoimidazol-1-yl)-pyridin-2-yl]-benzamide], greater than 1 µM.
Molecule `COc1cccc(C(=O)Nc2ccc(-n3c(C(F)(F)F)nc4cc(OC)ccc43)cn2)c1` [Compound 204, 3-Methoxy-N-[5-(5-methoxy-2-trifluoromethyl-benzoimidazol-1-yl)-pyridin-2-yl]-benzamide] yielded an IC50 (binned values) greater than 1 µM.
Same read-out and setting: with `COc1ccc2c(c1)nc(C(F)(F)F)n2-c1ccc(NC(=O)c2csnn2)nc1` [Compound 205, [1,2,3]Thiadiazole-4-carboxylic acid [5-(5-methoxy-2-trifluoromethyl-benzoimidazol-1-yl)-pyridin-2-yl]-amide] the figure was greater than 1 µM; with `COc1ccc2c(c1)nc(C(F)(F)F)n2-c1ccc(NC(=O)c2ccccc2OC)nc1` [Compound 206, 2-Methoxy-N-[5-(5-methoxy-2-trifluoromethyl-benzoimidazol-1-yl)-pyridin-2-yl]-benzamide], greater than 1 µM.
Same read-out and setting: with `CCCc1ccc(C(=O)Nc2ccc(-n3c(C(F)(F)F)nc4cc(OC)ccc43)cn2)cc1` [Compound 207, N-[5-(5-Methoxy-2-trifluoromethyl-benzoimidazol-1-yl)-pyridin-2-yl]-4-propyl-benzamide] the figure was greater than 1 µM.
Same read-out and setting: with `COc1ccc2c(c1)nc(C(F)(F)F)n2-c1ccc(NC(=O)c2cccc(N(C)C)c2)nc1` [Compound 208, 3-Dimethylamino-N-[5-(5-methoxy-2-trifluoromethyl-benzoimidazol-1-yl)-pyridin-2-yl]-benzamide] the figure was greater than 1 µM.
For the molecule `COc1ccc2c(c1)nc(C(F)(F)F)n2-c1ccc(NC(=O)c2cccc(SC)c2)nc1` [Compound 209, N-[5-(5-Methoxy-2-trifluoromethyl-benzoimidazol-1-yl)-pyridin-2-yl]-3-methylsulfanyl-benzamide], the IC50 (binned values) was greater than 1 µM.
`COc1ccc2c(c1)nc(C(F)(F)F)n2-c1ccc(NC(=O)c2ccc(SC)cc2)nc1` [Compound 210, N-[5-(5-Methoxy-2-trifluoromethyl-benzoimidazol-1-yl)-pyridin-2-yl]-4-methylsulfanyl-benzamide]: the IC50 (binned values) was greater than 1 µM.
Same read-out and setting: with `COc1ccc2c(c1)nc(C(F)(F)F)n2-c1ccc(NC(=O)c2ccc(C)cc2)nc1` [Compound 211, N-[5-(5-Methoxy-2-trifluoromethyl-benzoimidazol-1-yl)-pyridin-2-yl]-4-methyl-benzamide] the figure was greater than 1 µM; with `CNCc1ccc(C(=O)Nc2ccc(-n3c(C(F)(F)F)nc4cc(OC)ccc43)cn2)cc1` [Compound 212, N-[5-(5-Methoxy-2-trifluoromethyl-benzoimidazol-1-yl)-pyridin-2-yl]-4-methylaminomethyl-benzamide], greater than 1 µM; with `COc1ccc2c(c1)nc(C(F)(F)F)n2-c1ccc(NC(=O)C(C)(C)C)nc1` [Compound 213, N-[5-(5-Methoxy-2-trifluoromethyl-benzoimidazol-1-yl)-pyridin-2-yl]-2,2-dimethyl-propionamide], greater than 1 µM.
Same read-out and setting: with `COc1ccc2c(c1)nc(C(F)(F)F)n2-c1ccc(NC(=O)C(C)C)nc1` [Compound 214, N-[5-(5-Methoxy-2-trifluoromethyl-benzoimidazol-1-yl)-pyridin-2-yl]-isobutyramide] the figure was greater than 1 µM.
The molecule `CCc1ccc(C(=O)Nc2ccc(-n3c(C(F)(F)F)nc4cc(OC)ccc43)cn2)cc1` [Compound 215, 4-Ethyl-N-[5-(5-methoxy-2-trifluoromethyl-benzoimidazol-1-yl)-pyridin-2-yl]-benzamide] showed an IC50 (binned values) greater than 1 µM.
Still for that read-out and setting: with `COc1ccc2c(c1)nc(C(F)(F)F)n2-c1ccc(NC(=O)c2ncc[nH]2)nc1` [Compound 216, 1H-Imidazole-2-carboxylic acid [5-(5-methoxy-2-trifluoromethyl-benzoimidazol-1-yl)-pyridin-2-yl]-amide] the figure was greater than 1 µM.
